Results on 14 compounds are retold here after ChEMBL document CHEMBL1201862, “PubChem BioAssay data set” (2004).

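Assay format: 96-well plates, 48-hour exposure. Abbreviation: GI50, concentration required for 50% inhibition of growth.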 The source made the active and inactive calls. No stated cut-off is given here; in the data, active = GI50 up to about 1.1 µM and inactive = higher.

Test systems include IGROV-1; MOLT-4; A549; A498; K562; HCT-116; HL-60; ACHN; CAKI-1; 786-0; NCI-H460; OVCAR-5; U-251; COLO 205; NCI-H522; SK-OV-3.
Assay in all cases: DTP human tumour cell line panel, 48 h

A word on the GI50: it is the concentration that inhibits growth by half. In the case of `CCC1C(=O)OCc2c1cc1n(c2=O)Cc2ccccc2-1` (stereo not drawn), the GI50 in the assay with IGROV-1, with MOLT-4, with A549, with A498, in the assay with K562 and in the assay with HCT-116 was > 100 µM (inactive) throughout. The GI50 in the assay on HL-60 is > 100 µM (inactive); in the assay with ACHN, > 100 µM (inactive); in the assay with CAKI-1, 34.2 µM (inactive); in the assay with 786-0 it was > 100 µM (inactive); with NCI-H460, > 100 µM (inactive); in the assay with OVCAR-5 it was > 100 µM (inactive).
Consider `S=c1[nH]c(=S)c2nnn(-c3ccccc3)c2[nH]1`, for which the GI50 in the assay on IGROV-1, in the assay with MOLT-4, in the assay on A549, in the assay with U-251, in the assay on COLO 205 and in the assay on K562 was > 100 µM (inactive) throughout. The GI50 in the assay on NCI-H522 was > 100 µM (inactive); in the assay on HCT-116, 0.0836 µM (active); in the assay with SK-OV-3, > 100 µM (inactive); with HL-60, > 100 µM (inactive); in the assay with ACHN, > 100 µM (inactive); with CAKI-1, > 100 µM (inactive). Also, the GI50 in the assay on 786-0, with NCI-H460 and in the assay with OVCAR-5 was > 100 µM (inactive) each time.
In the case of `O=Cn1c2ccccc2c2ccccc21`, the GI50 in the assay on IGROV-1, in the assay on MOLT-4, in the assay on A549, in the assay on A498, in the assay on U-251 and in the assay with COLO 205 was > 100 µM (inactive) each time. For the same compound, the GI50 with K562, in the assay with NCI-H522, in the assay on HCT-116, in the assay with SK-OV-3, in the assay with HL-60 and in the assay on ACHN was > 100 µM (inactive) each time. In addition, the GI50 in the assay on 786-0, in the assay with NCI-H460 and in the assay on OVCAR-5 was > 100 µM (inactive) each time.
Take `Cc1c2c(cc3c1C(=O)C(=O)C1=C3OC[C@@H]1C)C(C)(C)CCC2`: the GI50 is 19.7 µM (inactive) in the assay on IGROV-1; 12.4 µM (inactive) with MOLT-4; 13 µM (inactive) in the assay on A549; 22.3 µM (inactive) in the assay on A498; 16.2 µM (inactive) in the assay on U-251; 7.29 µM (inactive) in the assay on COLO 205. The GI50 in the assay on K562 is 14.9 µM (inactive); with HCT-116, 13.8 µM (inactive); in the assay on SK-OV-3, 41.9 µM (inactive); in the assay with HL-60, 10.3 µM (inactive); in the assay on ACHN it was 16 µM (inactive); with CAKI-1, 19.3 µM (inactive). Also, the GI50 in the assay on 786-0 was 23.4 µM (inactive); with NCI-H460, 13.7 µM (inactive); in the assay with OVCAR-5 it was 21.5 µM (inactive).
`O=c1[nH]c2nc3ccccc3c(=O)n2nc1Cc1ccccc1`: the GI50 was 45.1 µM (inactive) in the assay on IGROV-1; > 100 µM (inactive) in the assay on MOLT-4; > 100 µM (inactive) in the assay with A549; > 100 µM (inactive) in the assay on U-251; > 100 µM (inactive) in the assay on COLO 205; > 100 µM (inactive) with K562. Besides, the GI50 in the assay with NCI-H522 is 98.2 µM (inactive); in the assay with HCT-116 it was > 100 µM (inactive); in the assay on SK-OV-3, 84.7 µM (inactive); in the assay on ACHN, > 100 µM (inactive); with CAKI-1, > 100 µM (inactive); in the assay with 786-0, > 100 µM (inactive). For the same compound, the GI50 in the assay with NCI-H460 and in the assay with OVCAR-5 was > 100 µM (inactive) in each case.
Consider `COc1ccc(C2C(Cl)C(=O)N2n2cnc3ccccc3c2=O)cc1` (stereo not drawn), for which the GI50 with IGROV-1 was > 100 µM (inactive); in the assay on MOLT-4 it was 51.3 µM (inactive); in the assay with A549 it was > 100 µM (inactive); in the assay on U-251, > 100 µM (inactive); with COLO 205 it was 62.2 µM (inactive); in the assay on K562, 89.7 µM (inactive). Further, the GI50 in the assay with NCI-H522 was 89.3 µM (inactive); with HCT-116, 54.6 µM (inactive); in the assay with SK-OV-3, > 100 µM (inactive); in the assay on HL-60 it was 59.2 µM (inactive); in the assay on ACHN, 40.5 µM (inactive); in the assay on CAKI-1 it was 82.8 µM (inactive). Besides, the GI50 in the assay with 786-0 was 46.9 µM (inactive); in the assay on NCI-H460 it was 70.5 µM (inactive); with OVCAR-5, > 100 µM (inactive).
On to `CCCCNC1CCCCC[C@H]1O` (stereo partly drawn), for which the GI50 in the assay with IGROV-1, in the assay on MOLT-4, in the assay on A549, with U-251, in the assay on COLO 205 and with K562 was > 100 µM (inactive) throughout. Also, the GI50 in the assay with NCI-H522, with HCT-116, in the assay on SK-OV-3, in the assay with HL-60, in the assay on ACHN and in the assay on CAKI-1 was > 100 µM (inactive) throughout. Moreover, the GI50 in the assay with 786-0, in the assay with NCI-H460 and in the assay with OVCAR-5 was > 100 µM (inactive) throughout.
As to `CCOc1ccccc1NC(=O)CC1C(=O)Nc2ccccc2[S+]1[O-]` (stereo not drawn), the GI50 in the assay with IGROV-1 is 51.5 µM (inactive); in the assay on MOLT-4, 10.5 µM (inactive); in the assay with A549 it was > 100 µM (inactive); with A498, > 100 µM (inactive); in the assay with U-251, 67.9 µM (inactive); in the assay on K562 it was 49.7 µM (inactive). Further, the GI50 is 45.4 µM (inactive) in the assay with NCI-H522; > 100 µM (inactive) with HCT-116; 26.8 µM (inactive) in the assay on HL-60; 66.2 µM (inactive) in the assay on ACHN; > 100 µM (inactive) in the assay with CAKI-1; 63.1 µM (inactive) in the assay with 786-0. Further, the GI50 was 80 µM (inactive) in the assay with NCI-H460 and > 100 µM (inactive) with OVCAR-5.
Turning to `COC(=O)C(=O)C(/C(=N/N)C(=O)Nc1ccccc1C(N)=O)c1nc2ccc([N+](=O)[O-])cc2nc1O` (stereo not drawn), the GI50 in the assay with IGROV-1 was > 100 µM (inactive); in the assay on MOLT-4, > 100 µM (inactive); in the assay on A549, > 100 µM (inactive); with A498 it was 1.01 µM (active); in the assay with U-251 it was > 100 µM (inactive); with COLO 205, > 100 µM (inactive). Besides, the GI50 in the assay on K562, with NCI-H522, in the assay on HCT-116, in the assay with HL-60, with ACHN and in the assay on CAKI-1 was > 100 µM (inactive) throughout. Also, the GI50 in the assay with 786-0, in the assay with NCI-H460 and with OVCAR-5 was > 100 µM (inactive) in each case.
`C/C(=C\C(C)COCc1ccccc1)[C@H](COCc1ccccc1)OCc1ccccc1` (stereo partly drawn): the GI50 with IGROV-1 is > 100 µM (inactive); with MOLT-4, 46.9 µM (inactive); in the assay with A549, > 100 µM (inactive); in the assay with A498, > 100 µM (inactive); in the assay with U-251, > 100 µM (inactive); in the assay with COLO 205 it was > 100 µM (inactive). Besides, the GI50 in the assay on K562 is 73.1 µM (inactive); in the assay on NCI-H522, 88.5 µM (inactive); in the assay on HCT-116 it was 85.1 µM (inactive); with SK-OV-3 it was > 100 µM (inactive); in the assay with HL-60 it was > 10 µM (inactive); in the assay with ACHN, > 100 µM (inactive). Besides, the GI50 in the assay with 786-0, in the assay on NCI-H460 and in the assay with OVCAR-5 was > 100 µM (inactive) throughout.
Regarding `COc1ccc(OC)c(CCc2cc(OC)c(OC)cc2C)c1`, the GI50 was 8.47 µM (inactive) in the assay with IGROV-1; 12.1 µM (inactive) in the assay on MOLT-4; 29.3 µM (inactive) in the assay with A549; > 100 µM (inactive) in the assay on A498; 43.4 µM (inactive) in the assay on U-251; 33.4 µM (inactive) in the assay on COLO 205. Moreover, the GI50 was 3.64 µM (inactive) in the assay with K562; 3.65 µM (inactive) in the assay on NCI-H522; 23 µM (inactive) in the assay with SK-OV-3; > 100 µM (inactive) in the assay on ACHN; 52 µM (inactive) in the assay on CAKI-1; 38.7 µM (inactive) with 786-0. Besides, the GI50 is 34.2 µM (inactive) in the assay on NCI-H460 and > 100 µM (inactive) with OVCAR-5.
As to `O=C1OCc2nc3c(c(-c4ccccc4C(F)(F)F)c21)C(=O)OC3`, the GI50 with IGROV-1, in the assay with MOLT-4, in the assay on A549, with A498, with U-251 and in the assay with COLO 205 was > 100 µM (inactive) in each case. Also, the GI50 with K562, in the assay with NCI-H522, with HCT-116, with SK-OV-3, in the assay on HL-60 and with ACHN was > 100 µM (inactive) in each case. In addition, the GI50 with 786-0, with NCI-H460 and in the assay with OVCAR-5 was > 100 µM (inactive) each time.
As to `CCCCCCCCCCCC[N+]12CC[N+](C)(CC1)CC2`, the GI50 in the assay with IGROV-1 is 1.98 µM (inactive); in the assay on MOLT-4, 27.9 µM (inactive); in the assay with A549, 54.7 µM (inactive); in the assay on U-251, 15.6 µM (inactive); in the assay with COLO 205, 5.28 µM (inactive); with K562, 23.8 µM (inactive). Moreover, the GI50 was 19.4 µM (inactive) with NCI-H522; 38.7 µM (inactive) in the assay on HCT-116; > 100 µM (inactive) in the assay on SK-OV-3; 16.4 µM (inactive) in the assay with HL-60; 55.1 µM (inactive) with ACHN; 11.8 µM (inactive) in the assay with CAKI-1. Moreover, the values for the GI50 in the assay with 786-0, with NCI-H460 and in the assay on OVCAR-5 were 13 µM (inactive), 6.38 µM (inactive) and 17.1 µM (inactive), respectively.
Take `COc1ccccc1C1C(C(=O)Nc2ccccc2)=C(C)NC(C)=C1C(=O)Nc1ccccc1`: the GI50 in the assay with IGROV-1 is 34.4 µM (inactive); in the assay with MOLT-4 it was 7.45 µM (inactive); in the assay with A498, 31.7 µM (inactive); in the assay with U-251, 90.8 µM (inactive); with COLO 205, 24.5 µM (inactive); in the assay with K562, 44.8 µM (inactive). In addition, the GI50 in the assay on NCI-H522 was 48.1 µM (inactive); in the assay on HCT-116, 65.8 µM (inactive); in the assay with SK-OV-3 it was > 100 µM (inactive); with ACHN, 39.5 µM (inactive); in the assay with CAKI-1, > 100 µM (inactive); with 786-0 it was > 100 µM (inactive). Moreover, the GI50 in the assay with NCI-H460 was 44 µM (inactive); in the assay with OVCAR-5 it was 91 µM (inactive).
